# Several values for one entry are separate records, joined by “and”; a condition that tells them apart may be missing. Equal values may be shown once. Read-outs that look alike come from different tables or passages of the source.
# What was measured:
# [1] = target: T1, L. amazonensis arginase (L-ARG) (Leishmania amazonensis, UniProt O96394); assay: Kinetics of arginase inhibition (Dixon and Cornish-Bowden plots); assay type: biochemical; conditions: for Mechanism of Inhibition: Dixon and Cornish-Bowden plots; for Ki: Dixon plots, L-arginine 100, 50 and 25 mM
# Method: The enzyme kinetics were performed to determine the mechanism of inhibition and the dissociation constant (Ki) of the compounds via the simultaneous analysis of the Dixon and Cornish-Bowden plots. The Ki inhibition constants (complex EI), which refer to the equilibriums established between the […] in the presence of an inhibitor (I), were determined (Table 1).
# (§1) Recombinant L-ARG was expressed and purified as previously described. A stock solution of 70 mM was prepared in DMSO and was stored at −20 °C for each compound just before the experiment. The concentration that inhibited 50% of the catalytic activity of the enzyme (IC50) was determined using an inhibitor concentration from 200 μM to 0.05 μM; the concentrations were obtained via a serial dilution in water (1:4). The kinetics were determined using three concentrations of the substrate and three concentrations of inhibitor, as previously described. Two independent experiments were performed in triplicate with a coefficient of nonlinear regression R^2 ≥ 0.85. The sigmoidal model (log IC50) was used to determine the IC50 using GraphPad Prism 7 software for Windows (San Diego, CA, USA).
# Figure 1 Kinetics of the arginase inhibition by compounds 2–4, 7, and 9. The mechanism of action was determined by an analysis of the Dixon (A) and Cornish-Bowden plots (B); the Ki constant was measured using Dixon plots by calculating the X values at the intersection point of the lines. […] Each drawn point represents the mean of three independent experiments (n = 3) performed in duplicate.
# [2] = target: T1, L. amazonensis arginase (L-ARG); assay: Recombinant L. amazonensis arginase (L-ARG) inhibition, IC50; assay type: biochemical; conditions: for IC50: mean ± SEM; for fold decrease of enzyme inhibition relative to compound 4: compared with compound 4
# Method: as §1
# [3] = target: T1, L. amazonensis arginase (L-ARG); conditions: cited from earlier work
# [4] = tested on: promastigotes and amastigotes of L. amazonensis; conditions: cited from earlier work
# L. amazonensis = tested on: L. amazonensis; set-up: method as in PMID 24906989; conditions: BALB/c mice, cutaneous leishmaniasis; cited from earlier work
# [5] = recombinant L-ARG, read-out: IC50
compound,measurement,setting,value
O=C(CCc1ccc(O)c(O)c1)O[C@H](Cc1ccccc1)C(=O)O [Compound 2],Mechanism of Inhibition,[1],Noncompetitive
same,Ki,[1],5.7 ± 0.7 µM
same,IC50,[2]; [5],2.8 ± 0.9 µM
O=C(/C=C/c1ccc(O)c(O)c1)O[C@H](Cc1ccc(O)c(O)c1)C(=O)O [rosmarinic acid],L-ARG inhibition (in words),[3],inhibitory profile
same,activity against the promastigotes and amastigotes of L. amazonensis,[4],active
same,lesion size and parasite burden,L. amazonensis,effective in reducing the lesion size and parasite burden
O=C(O)CC(OC(=O)/C=C/c1ccc(O)c(O)c1)C(=O)O (stereo not shown) [Compound 7],Mechanism of Inhibition,[1],Noncompetitive
same,Ki,[1],74 ± 8 µM
same,fold decrease of enzyme inhibition relative to compound 4,[2],approximately 20 times
same,IC50,[2]; [5],36.2 µM and 36 µM
O=C(CCc1ccc(O)cc1)Nc1cc(Cl)ccc1C(=O)O [Compound 10],IC50,[2]; recombinant L-ARG,Inactive
O=C(CCc1ccc(O)cc1)O[C@H](Cc1ccc(O)cc1)C(=O)O [Compound 5],fold decrease of enzyme inhibition relative to compound 4,[2],at least 100 times
same,L-ARG inhibition (in words),[2]; recombinant L-ARG,weak inhibition
same,IC50,[2]; [5],> 200 µM
O=C(/C=C/c1ccc(O)c(O)c1)Nc1cc(F)c(F)cc1C(=O)O [Compound 9],Mechanism of Inhibition,[1],Competitive
same,Ki,[1],4.6 ± 1.7 µM
same,IC50,[2]; [5],5.5 ± 0.5 µM
O=C(/C=C/c1ccc(O)cc1)O[C@H](Cc1ccccc1)C(=O)O [Compound 1],IC50,[2]; recombinant L-ARG,Inactive
O=C(/C=C/c1ccc(O)cc1)Nc1cc(Cl)ccc1C(=O)O [Compound 8],IC50,[2]; recombinant L-ARG,Inactive
O=C(CCc1ccc(O)c(O)c1)O[C@H](Cc1ccc(O)cc1)C(=O)O [Compound 4],Mechanism of Inhibition,[1],Noncompetitive
same,Ki,[1],2 ± 0.6 µM
same,IC50,[2]; [5],1.9 ± 0.7 µM
O=C(O)/C=C/c1ccc(O)c(O)c1 [caffeic acid],L-ARG inhibition (in words),[3],inhibitory profile
same,activity against the promastigotes and amastigotes of L. amazonensis,[4],active
same,lesion size and parasite burden,L. amazonensis,effective in reducing the lesion size and parasite burden
C[C@@H]1O[C@@H](O[C@@H]2[C@@H](O)[C@H](OCCc3ccc(O)c(O)c3)O[C@H](CO)[C@H]2OC(=O)/C=C/c2ccc(O)c(O)c2)[C@H](O)[C@H](O)[C@H]1O [verbascoside],L-ARG inhibition (in words),[3],inhibits
same,activity against promastigote and intracellular amastigotes of the parasite,[4],active
O=C(CCc1ccc(O)c(O)c1)O[C@H](Cc1ccc(O)c(O)c1)C(=O)O [Compound 3],Mechanism of Inhibition,[1],Noncompetitive
same,Ki,[1],3.9 ± 0.4 µM
same,IC50,[2]; [5],3 ± 0.2 µM
O=C(CCc1ccc(O)cc1)O[C@H](Cc1ccccc1)C(=O)O [Compound 6],IC50,[2]; recombinant L-ARG,Inactive
COc1cc(/C=C/C(=O)O)ccc1O [ferulic acid],activity against the promastigotes and amastigotes of L. amazonensis,[4],active
same,lesion size and parasite burden,L. amazonensis,effective in reducing the lesion size and parasite burden
O=C(/C=C/c1ccc(O)c(O)c1)O[C@@H]1C[C@](O)(C(=O)O)C[C@@H](O)[C@H]1O [chlorogenic acid],activity against the promastigotes and amastigotes of L. amazonensis,[4],active
